For seven compounds, toxicity signs results are on record in patent US5633345A, “Cyclic peptides” (priority 1992, dated 1997).

Starred links: 1 amine or outer side, 2 acyl side, 3 side chain; linkers in the order of their positions; H or OH if unused. Non-standard residues stand in square brackets, D forms with d. Residues, ends and D or L forms follow the SMILES beside them. NMePhe(2-F) = CN[C@@H](Cc1ccccc1F)C(=O)O; X1 = CC[C@@H](C)[C@@H](O[*:1])C(=O)[*:2]; NMeVal(β-OH) = CN[C@H](C(=O)O)C(C)(C)O; X4 = CC(O)[C@@H](C)C(O[*:1])C(=O)[*:2]; Phe(2-F) = N[C@@H](Cc1ccccc1F)C(=O)O; NMeF = CN[C@@H](Cc1ccccc1)C(=O)O; aIle = CC[C@@H](C)[C@H](N)C(=O)O; NMeL = CN[C@@H](CC(C)C)C(=O)O; NMeV = CN[C@H](C(=O)O)C(C)C; Nva = CCC[C@H](N)C(=O)O

The conditions of this data set: mouse, in vivo, ip, 100 mg/kg.
Turning to `CC[C@@H](C)[C@H]1OC(=O)[C@H](C(C)(C)O)N(C)C(=O)[C@H](CC(C)C)NC(=O)[C@H](C(C)C)N(C)C(=O)[C@H](CC(C)C)NC(=O)[C@@H]2CCCN2C(=O)[C@H](Cc2ccccc2)N(C)C(=O)[C@H](Cc2ccccc2)NC(=O)[C@H](C(C)C)N(C)C1=O` [Compound 6] (HELM PEPTIDE1{F.[meF].P.L.[meV].L.[CN([C@H](C(=O)[*:2])C(C)(C)O)[*:1]].[CC[C@@H](C)[C@@H](O[*:1])C(=O)[*:2]].[meV]}$PEPTIDE1,PEPTIDE1,1:R1-9:R2$$$V2.0), the toxicity signs entry was “no toxicity signs”.
For the compound `CC[C@@H](C)[C@@H]1NC(=O)[C@@H]2CCCN2C(=O)[C@H](Cc2ccccc2)N(C)C(=O)[C@H](Cc2ccccc2)NC(=O)[C@H](C(C)C)N(C)C(=O)[C@@H]([C@H](C)CC)OC(=O)[C@H](C(C)(C)O)N(C)C(=O)[C@H](CC(C)C)NC(=O)[C@H](CC(C)C)N(C)C1=O` [Compound 23, cyclo(L-aIle-L-MeLeu-L-Leu-L-βHOMeVal-D-Hmp-L-MeVal-L-Phe-L-MePhe-L-Pro)] (cyclo(F[NMeF]P[aIle][NMeL]L[NMeVal(β-OH)][X1][NMeV])), the toxicity signs result is “no toxicity signs”.
With `CC[C@@H](C)[C@@H]1NC(=O)[C@@H]2CCCN2C(=O)[C@H](Cc2ccccc2F)N(C)C(=O)[C@H](Cc2ccccc2F)NC(=O)[C@H](C(C)C)N(C)C(=O)[C@@H]([C@H](C)CC)OC(=O)[C@H](C(C)(C)O)N(C)C(=O)[C@H](CC(C)C)NC(=O)[C@H](C(C)C)N(C)C1=O` [Compound 7] (cyclo(L[NMeVal(β-OH)][X1][NMeV][Phe(2-F)][NMePhe(2-F)]P[aIle][NMeV])), the toxicity signs entry is “no toxicity signs”.
The result for `CC[C@@H](C)[C@H]1OC(=O)[C@H](C(C)(C)O)N(C)C(=O)[C@H](CC(C)C)NC(=O)[C@H](C(C)C)N(C)C(=O)[C@H](C(C)C)NC(=O)[C@@H]2CCCN2C(=O)[C@H](Cc2ccccc2)N(C)C(=O)[C@H](Cc2ccccc2)NC(=O)[C@H](C(C)C)N(C)C1=O` [Compound 3] (HELM PEPTIDE1{F.[meF].P.V.[meV].L.[CN([C@H](C(=O)[*:2])C(C)(C)O)[*:1]].[CC[C@@H](C)[C@@H](O[*:1])C(=O)[*:2]].[meV]}$PEPTIDE1,PEPTIDE1,1:R1-9:R2$$$V2.0) reads “no toxicity signs”; that for `CC[C@@H](C)[C@@H]1NC(=O)[C@@H]2CCCN2C(=O)[C@H](Cc2ccccc2)N(C)C(=O)[C@H](Cc2ccccc2)NC(=O)[C@H](C(C)C)N(C)C(=O)C([C@H](C)C(C)O)OC(=O)[C@H](C(C)(C)O)N(C)C(=O)[C@H](CC(C)C)NC(=O)[C@H](C(C)C)N(C)C1=O` (stereo partly drawn) [Compound 17] (cyclo(F[NMeF]P[aIle][NMeV]L[NMeVal(β-OH)][X4][NMeV])), “no toxicity signs”; that for `CC[C@@H](C)[C@@H]1NC(=O)[C@@H]2CCCN2C(=O)[C@H](Cc2ccccc2)N(C)C(=O)[C@H](Cc2ccccc2)NC(=O)[C@H](C(C)C)N(C)C(=O)[C@@H]([C@H](C)CC)OC(=O)[C@H]([C@@H](C)O)N(C)C(=O)[C@H](CC(C)C)NC(=O)[C@H](C(C)C)N(C)C1=O` [Compound 19, Cyclo(L-aIle-L-MeVal-L-Leu-L-MeThr-D-Hmp-L-MeVal-L-Phe-L-MePhe-L-Pro)] (HELM PEPTIDE1{F.[meF].P.[CC[C@@H](C)[C@H](N[*:1])C(=O)[*:2]].[meV].L.[meT].[CC[C@@H](C)[C@@H](O[*:1])C(=O)[*:2]].[meV]}$PEPTIDE1,PEPTIDE1,1:R1-9:R2$$$V2.0), “no toxicity signs”.
As to `CCC[C@@H]1NC(=O)[C@H](C(C)C)N(C)C(=O)[C@H]([C@H](C)CC)NC(=O)[C@@H]2CCCN2C(=O)[C@H](Cc2ccccc2)N(C)C(=O)[C@H](Cc2ccccc2)NC(=O)[C@H](C(C)C)N(C)C(=O)[C@@H]([C@H](C)CC)OC(=O)[C@H](C(C)(C)O)N(C)C1=O` [Compound 12] (cyclo(F[NMeF]P[aIle][NMeV][Nva][NMeVal(β-OH)][X1][NMeV])), the toxicity signs entry is given as “no toxicity signs”.
